Reference: article PMC9682078, “Structural changes and molecular mechanism study on the inhibitory activity of epigallocatechin against α-glucosidase and α-amylase” (Frontiers in Nutrition, 2022)

Target: T1, α-amylase (Sus scrofa, UniProt P00690)
T1 construct: gene AMY2
T1 sequence (P00690 16-511): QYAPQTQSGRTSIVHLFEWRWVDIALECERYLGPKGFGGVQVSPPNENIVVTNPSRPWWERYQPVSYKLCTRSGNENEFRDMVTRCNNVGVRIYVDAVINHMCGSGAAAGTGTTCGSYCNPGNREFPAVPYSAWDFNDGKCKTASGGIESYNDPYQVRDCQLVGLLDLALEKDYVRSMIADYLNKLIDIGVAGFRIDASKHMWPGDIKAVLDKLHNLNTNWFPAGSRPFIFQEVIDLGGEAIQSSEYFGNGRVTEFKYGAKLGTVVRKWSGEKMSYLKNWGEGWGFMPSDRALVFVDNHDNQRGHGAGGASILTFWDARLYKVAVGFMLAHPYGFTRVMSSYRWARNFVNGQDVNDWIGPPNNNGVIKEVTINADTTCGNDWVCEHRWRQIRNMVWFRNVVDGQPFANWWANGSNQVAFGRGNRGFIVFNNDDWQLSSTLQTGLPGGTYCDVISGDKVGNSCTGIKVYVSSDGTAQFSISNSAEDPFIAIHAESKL
Test: colorimetric DNS starch hydrolysis assay; Lineweaver-Burk kinetics; intrinsic fluorescence quenching
Format: biochemical

Oc1cc(O)c2c(c1)O[C@H](c1cc(O)c(O)c(O)c1)[C@H](O)C2 [EGC, epigallocatechin]
IC50: 4.44 mM
